Source: US11376266B2, “Antitumor agent” (KEIO UNIVERSITY, priority 2016, dated 2022)
In brackets after ≈: the same amount, converted by molar mass. Like-named read-outs stand apart in the source and are kept apart here.

What was measured:
[1] = system: human colon cancer HCT-116 cells; assay: Antitumor effect of sulfasalazine in mice bearing subcutaneous HCT-116 tumors; format: in vivo, KSN nude mice; details: 250 mg/kg intraperitoneally once per day; Days 14 and 28 after transplantation; versus saline control; FIG. 1
Method: The human colon cancer HCT-116 cells that proliferate in a CD44v-dependent manner were administered subcutaneously to KSN nude mice to form tumors. The cells were transplanted into 10 mice. 250 mg/kg of sulfasalazine or 100 μl of saline was injected to each of groups of 5 mice intraperitoneally once per day. Diameter of tumors was measured on Days 14 and 28 after transplantation and their weights were calculated based on the diameters and compared between the two groups.

T98G cell line = details: 0 to 1250 μM calculated as sulfasalazine, two days, FIG. 6
Method: Using the same medium as in (3), the T98G cell line was seeded onto 96-well plates at 3,000 cells/well. On the next day, sulfasalazine and the type-A PEGylated sulfasalazines were added at 0 to 1250 μM calculated in concentrations of sulfasalazine. Two days later, cell viability was measured using a CellTiter-Glo (Promega).

[2] = Solubility test in pure water and saline (UV absorption at 238 nm); format: physicochemical; details: thermodynamic from solid, room temperature, PEGylated values calculated as sulfasalazine
Method: The aqueous solutions thus obtained were centrifuged at 8000 rpm for 30 minutes at room temperature, and 50 μL of each supernatant was taken. One microliter of 5N NaOH solution was added to the supernatant and UV absorption (at 238 nm) was measured for the resulting solution, thereby sulfasalazine concentration in the solution (solubility in pure water and saline) was calculated.

solubility ([2]; pure water, water, read-out: Saturated solubility, pure water): 50 µg/mL (≈ 126 µM)
solubility ([2]; saline, saline or isotonic, read-out: Saturated solubility, saline): 37 µg/mL (≈ 92.9 µM)
Structure (SMILES): O=C(O)c1cc(/N=N/c2ccc(S(=O)(=O)Nc3ccccn3)cc2)ccc1O [Sulfasalazine]
tumor growth (tumor weight calculated from diameter) [1]: significantly slower
cell viability, concentration dependence (cytotoxicity) (T98G cell line): substantially identical concentration dependence
